PMC10794144, “A novel antibiotic class targeting the lipopolysaccharide transporter” (Nature, 2024)
≈ marks a conversion by molar mass, not a printed value. Where two headings read alike, the source gives them in different places.

What was measured:
[1] = system: A. baumannii; experiment: microbe, parasite or virus in culture; conditions: Acinetobacter baumannii, 100%
Procedure: (§1) MIC determinations were performed using the broth microdilution method and in line with CLSI guidelines M07 and M100 (refs. [37],[38]). Bacterial inocula were prepared by diluting a 0.5 McFarland suspension in CAMHB or lysogeny broth (LB) specifically for A. baylyi isolates. […] MIC values of all of the tested antibiotics were read as the lowest compound concentration inhibiting bacterial growth by naked eye or beyond which the OD600 ceased to decrease.

[2] = system: E. coli ATCC 25922; experiment: microbe, parasite or virus in culture; conditions: for MIC: Escherichia coli
Procedure: as §1

C[C@@H](O)[C@H]1C(=O)N2C(C(=O)O)=C(S[C@@H]3CN[C@H](C(=O)N(C)C)C3)[C@H](C)[C@H]12 [meropenem, reference compound]
MIC ([1]; read-out: MIC 100%, ROB08708, Study ROC006): 64 µg/mL (≈ 167 µM)
MIC ([1]; read-out: MIC 100%, ROB08708, Study ROC007): 16 µg/mL (≈ 41.7 µM)
MIC ([1]; read-out: MIC 100%, ROB08708, Study ROC008): 16 µg/mL (≈ 41.7 µM)
MIC ([1]; read-out: MIC 100%, ROB08708, Study ROC009): 32 µg/mL (≈ 83.4 µM)
MIC ([1]; read-out: MIC 100%, ROB08708, Study ROC010): 16 µg/mL (≈ 41.7 µM)
MIC ([1]; read-out: MIC 100%, ROB08708, Study ROC012): 16 µg/mL (≈ 41.7 µM)
MIC ([1]; read-out: MIC 100%, ROB08708, Study ROC013): 32 µg/mL (≈ 83.4 µM)
MIC ([1]; read-out: MIC 100%, ROB08709, Study LGC277937): 32 µg/mL (≈ 83.4 µM)
MIC ([1]; read-out: MIC 100%, ROB08709, Study LGC279800): 32 µg/mL (≈ 83.4 µM)
MIC ([1]; read-out: MIC 100%, ROB08709, Study LGC281440): 32 µg/mL (≈ 83.4 µM)
MIC ([1]; read-out: MIC 100%, ROB08709, Study LGC282160): 16 µg/mL (≈ 41.7 µM)
MIC ([1]; read-out: MIC 100%, ROB08709, Study LGC282623): 32 µg/mL (≈ 83.4 µM)
MIC ([1]; read-out: MIC 100%, ROB08709, Study LGC283932): 32 µg/mL (≈ 83.4 µM)
MIC ([1]; read-out: MIC 100%, ROB08709, Study LGC284200): 32 µg/mL (≈ 83.4 µM)
MIC ([1]; read-out: MIC 100%, ROB08709, Study LGC284879): 32 µg/mL (≈ 83.4 µM)
MIC ([1]; read-out: MIC 100%, ROB08709, Study LGC285582): 32 µg/mL (≈ 83.4 µM)
MIC ([1]; read-out: MIC 100%, ROB08709, Study LGC286210): 32 µg/mL (≈ 83.4 µM)
MIC ([1]; read-out: MIC 100%, ROB08709, Study LGC293598): 32 µg/mL (≈ 83.4 µM)
MIC ([1]; read-out: MIC 100%, ROB08709, Study LGC294355): 32 µg/mL (≈ 83.4 µM)
MIC ([1]; read-out: MIC 100%, ROB08709, Study LGC295147): 16 µg/mL (≈ 41.7 µM)
MIC ([1]; read-out: MIC 100%, ROB08709, Study LGC296813): 16 µg/mL (≈ 41.7 µM)
MIC ([1]; read-out: MIC 100%, ROB08709, Study LGC299544): 32 µg/mL (≈ 83.4 µM)
MIC ([1]; read-out: MIC 100%, ROB08709, Study LGC301026): 16 µg/mL (≈ 41.7 µM)
MIC ([1]; read-out: MIC 100%, ROB08709, Study LGC308175): 32 µg/mL (≈ 83.4 µM)
MIC ([1]; read-out: MIC 100%, ROB08709, Study ROC004): 64 µg/mL (≈ 167 µM)
MIC ([1]; read-out: MIC 100%, ROB08709, Study ROC005): 16 µg/mL (≈ 41.7 µM)
MIC ([1]; read-out: MIC 100%, ROB08709, Study ROC006): 64 µg/mL (≈ 167 µM)
MIC ([1]; read-out: MIC 100%, ROB08709, Study ROC007): 16 µg/mL (≈ 41.7 µM)
MIC ([1]; read-out: MIC 100%, ROB08709, Study ROC008): 16 µg/mL (≈ 41.7 µM)
MIC ([1]; read-out: MIC 100%, ROB08709, Study ROC009): 16 µg/mL (≈ 41.7 µM)
MIC ([1]; read-out: MIC 100%, ROB08709, Study ROC010): 16 µg/mL (≈ 41.7 µM)
MIC ([1]; read-out: MIC 100%, ROB08709, Study ROC012): 16 µg/mL (≈ 41.7 µM)
MIC ([1]; read-out: MIC 100%, ROB08709, Study ROC013): 32 µg/mL (≈ 83.4 µM)
MIC ([1]; read-out: MIC 100%, ROB08710, Study LGC277937): 64 µg/mL (≈ 167 µM)
MIC ([1]; read-out: MIC 100%, ROB08710, Study LGC279800): 64 µg/mL (≈ 167 µM)
MIC ([1]; read-out: MIC 100%, ROB08710, Study LGC281440): 32 µg/mL (≈ 83.4 µM)
MIC ([1]; read-out: MIC 100%, ROB08710, Study LGC282160): 64 µg/mL (≈ 167 µM)
MIC ([1]; read-out: MIC 100%, ROB08710, Study LGC282623): 32 µg/mL (≈ 83.4 µM)
MIC ([1]; read-out: MIC 100%, ROB08710, Study LGC283932): 32 µg/mL (≈ 83.4 µM)
MIC ([1]; read-out: MIC 100%, ROB08710, Study LGC284200): 32 µg/mL (≈ 83.4 µM)
MIC ([1]; read-out: MIC 100%, ROB08710, Study LGC284879): 32 µg/mL (≈ 83.4 µM)
MIC ([1]; read-out: MIC 100%, ROB08710, Study LGC285582): 32 µg/mL (≈ 83.4 µM)
MIC ([1]; read-out: MIC 100%, ROB08710, Study LGC286210): 32 µg/mL (≈ 83.4 µM)
MIC ([1]; read-out: MIC 100%, ROB08710, Study LGC293598): 32 µg/mL (≈ 83.4 µM)
MIC ([1]; read-out: MIC 100%, ROB08710, Study LGC294355): 32 µg/mL (≈ 83.4 µM)
MIC ([1]; read-out: MIC 100%, ROB08710, Study LGC295147): 64 µg/mL (≈ 167 µM)
MIC ([1]; read-out: MIC 100%, ROB08710, Study LGC296813): 32 µg/mL (≈ 83.4 µM)
MIC ([1]; read-out: MIC 100%, ROB08710, Study LGC299544): 64 µg/mL (≈ 167 µM)
MIC ([1]; read-out: MIC 100%, ROB08710, Study LGC301026): 32 µg/mL (≈ 83.4 µM)
MIC ([1]; read-out: MIC 100%, ROB08710, Study LGC308175): 32 µg/mL (≈ 83.4 µM)
MIC ([1]; read-out: MIC 100%, ROB08710, Study ROC004): 32 µg/mL (≈ 83.4 µM)
MIC ([1]; read-out: MIC 100%, ROB08710, Study ROC005): 32 µg/mL (≈ 83.4 µM)
MIC ([1]; read-out: MIC 100%, ROB08710, Study ROC006): 64 µg/mL (≈ 167 µM)
MIC ([1]; read-out: MIC 100%, ROB08710, Study ROC007): 64 µg/mL (≈ 167 µM)
MIC ([1]; read-out: MIC 100%, ROB08710, Study ROC008): 32 µg/mL (≈ 83.4 µM)
MIC ([1]; read-out: MIC 100%, ROB08710, Study ROC009): 64 µg/mL (≈ 167 µM)
MIC ([1]; read-out: MIC 100%, ROB08710, Study ROC010): 32 µg/mL (≈ 83.4 µM)
MIC ([1]; read-out: MIC 100%, ROB08710, Study ROC012): 32 µg/mL (≈ 83.4 µM)
MIC ([1]; read-out: MIC 100%, ROB08710, Study ROC013): 32 µg/mL (≈ 83.4 µM)
MIC ([2]; ATCC25922): ≤ 0.06 µg/mL
MIC ([2]; ATCC25922, read-out: MIC 100%): ≤ 0.06 µg/mL
MIC 100% ([2]; Study LGC277937): ≤0.06 µg/mL
MIC 100% ([2]; Study LGC279800): ≤0.06 µg/mL
MIC 100% ([2]; Study LGC281440): ≤0.06 µg/mL
MIC 100% ([2]; Study LGC282160): ≤0.06 µg/mL
MIC 100% ([2]; Study LGC282623): ≤0.06 µg/mL
MIC 100% ([2]; Study LGC283932): ≤0.06 µg/mL
MIC 100% ([2]; Study LGC284200): ≤0.06 µg/mL
MIC 100% ([2]; Study LGC284879): ≤0.06 µg/mL
MIC 100% ([2]; Study LGC285582): ≤0.06 µg/mL
MIC 100% ([2]; Study LGC286210): ≤0.06 µg/mL
MIC 100% ([2]; Study LGC293598): ≤0.06 µg/mL
MIC 100% ([2]; Study LGC294355): ≤0.06 µg/mL
MIC 100% ([2]; Study LGC295147): ≤0.06 µg/mL
MIC 100% ([2]; Study LGC296813): ≤0.06 µg/mL
MIC 100% ([2]; Study LGC299544): ≤0.06 µg/mL
MIC 100% ([2]; Study LGC301026): ≤0.06 µg/mL
MIC 100% ([2]; Study LGC308175): ≤0.06 µg/mL
MIC 100% ([2]; Study ROC003): ≤0.06 µg/mL
MIC 100% ([2]; Study ROC004): ≤0.06 µg/mL
MIC 100% ([2]; Study ROC005): ≤0.06 µg/mL
MIC 100% ([2]; Study ROC006): ≤0.06 µg/mL
MIC 100% ([2]; Study ROC007): ≤0.06 µg/mL
MIC 100% ([2]; Study ROC008): ≤0.06 µg/mL
MIC 100% ([2]; Study ROC009): ≤0.06 µg/mL
MIC 100% ([2]; Study ROC010): ≤0.06 µg/mL
MIC 100% ([2]; Study ROC013): ≤0.06 µg/mL
